From PubChem BioAssay (NCI)
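Values below derive from 48-hour exposures of cells grown in 96-well plates, with endpoints linearly interpolated between the two concentrations bracketing the appropriate inhibition level. TGI is the concentration that stops growth completely.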

How the values were obtained:
Experiment in all cases: NCI tumour cell line growth inhibition, 48 h
[1] = tested on: A498 renal
[2] = tested on: A549 NSCLC
[3] = tested on: CAKI-1 renal
[4] = tested on: CCRF-CEM leukemia
[5] = tested on: COLO 205 colon
[6] = tested on: DLD-1 colon
[7] = tested on: DMS 114 small cell lung
[8] = tested on: DMS 273 small cell lung
[9] = tested on: EKVX NSCLC
[10] = tested on: HCC-2998 colon
[11] = tested on: HCT-116 colon
[12] = tested on: HCT-15 colon
[13] = tested on: HL-60(TB) leukemia
[14] = tested on: HOP-18 NSCLC
[15] = tested on: HOP-62 NSCLC
[16] = tested on: HOP-92 NSCLC
[17] = tested on: HT29 colon
[18] = tested on: IGROV1 ovarian
[19] = tested on: K-562 leukemia
[20] = tested on: KM12 colon
[21] = tested on: KM20L2 colon
[22] = tested on: LOX IMVI melanoma
[23] = tested on: M19-MEL melanoma
[24] = tested on: MALME-3M melanoma
[25] = tested on: MCF7 breast
[26] = tested on: MOLT-4 leukemia
[27] = tested on: NCI-H226 lung
[28] = tested on: NCI-H460 lung
[29] = tested on: NCI-H522 lung
[30] = tested on: NCI/ADR-RES ovarian
[31] = tested on: OVCAR-3 ovarian
[32] = tested on: OVCAR-4 ovarian
[33] = tested on: OVCAR-5 ovarian
[34] = tested on: OVCAR-8 ovarian
[35] = tested on: P388 leukemia
[36] = tested on: P388/ADR leukemia
[37] = tested on: RPMI-8226 leukemia
[38] = tested on: RXF 393 renal
[39] = tested on: SF-268 CNS
[40] = tested on: SF-295 CNS
[41] = tested on: SF-539 CNS
[42] = tested on: SK-MEL-2 melanoma
[43] = tested on: SK-MEL-28 melanoma
[44] = tested on: SK-MEL-5 melanoma
[45] = tested on: SK-OV-3 ovarian
[46] = tested on: SN12C renal
[47] = tested on: SN12K1 renal
[48] = tested on: SNB-19 CNS
[49] = tested on: SNB-75 CNS
[50] = tested on: SNB-78 CNS
[51] = tested on: SW-620 colon
[52] = tested on: U251 CNS
[53] = tested on: UACC-257 melanoma
[54] = tested on: UACC-62 melanoma
[55] = tested on: UO-31 renal
[56] = tested on: XF 498 CNS

SMILES: CC(=O)c1ccc2c(c1)c1c(C)c3c[n+](C)ccc3c(C)c1n2C
- TGI [1]: 46.5 µM
- TGI [2]: > 100 µM
- TGI [3]: > 76 µM
- TGI [4]: > 46.3 µM
- TGI [5]: > 100 µM
- TGI [6]: > 100 µM
- TGI [7]: 25.6 µM
- TGI [8]: 18.8 µM
- TGI [9]: > 100 µM
- TGI [10]: > 100 µM
- TGI [11]: 18.8 µM
- TGI [12]: > 100 µM
- TGI [13]: > 68.6 µM
- TGI [14]: 75.9 µM
- TGI [15]: 38.2 µM
- TGI [16]: 69.2 µM
- TGI [17]: > 100 µM
- TGI [18]: > 100 µM
- TGI [19]: > 72.2 µM
- TGI [20]: > 100 µM
- TGI [21]: > 100 µM
- TGI [22]: 49.4 µM
- TGI [23]: 23.7 µM
- TGI [24]: 33.7 µM
- TGI [25]: > 29 µM
- TGI [26]: 20.8 µM
- TGI [27]: 11.8 µM
- TGI [28]: 15.1 µM
- TGI [29]: > 100 µM
- TGI [30]: > 100 µM
- TGI [31]: > 65.6 µM
- TGI [32]: 54.4 µM
- TGI [33]: > 100 µM
- TGI [34]: 39.9 µM
- TGI [35]: 4.68 µM
- TGI [36]: 21.6 µM
- TGI [37]: 30.5 µM
- TGI [38]: 42.8 µM
- TGI [39]: 3.52 µM
- TGI [40]: 10.3 µM
- TGI [41]: 13.9 µM
- TGI [42]: 22.6 µM
- TGI [43]: 32.3 µM
- TGI [44]: > 47.8 µM
- TGI [45]: > 87 µM
- TGI [46]: 4.9 µM
- TGI [47]: 13.7 µM
- TGI [48]: 5.74 µM
- TGI [49]: 57.1 µM
- TGI [50]: 35.3 µM
- TGI [51]: > 85.4 µM
- TGI [52]: 11.9 µM
- TGI [53]: 36.2 µM
- TGI [54]: 8.23 µM
- TGI [55]: > 23.7 µM
- TGI [56]: 17.1 µM
